Assay results reported in patent EP4653444A1, “FUSED TRICYCLIC COMPOUND AS KINASE INHIBITOR” (Hangzhou Innogate Pharma Co., Ltd., priority 2023, dated 2024).

Target: T1, TNK1 kinase (Homo sapiens, UniProt Q13470)
T1 sequence (Q13470 1-666): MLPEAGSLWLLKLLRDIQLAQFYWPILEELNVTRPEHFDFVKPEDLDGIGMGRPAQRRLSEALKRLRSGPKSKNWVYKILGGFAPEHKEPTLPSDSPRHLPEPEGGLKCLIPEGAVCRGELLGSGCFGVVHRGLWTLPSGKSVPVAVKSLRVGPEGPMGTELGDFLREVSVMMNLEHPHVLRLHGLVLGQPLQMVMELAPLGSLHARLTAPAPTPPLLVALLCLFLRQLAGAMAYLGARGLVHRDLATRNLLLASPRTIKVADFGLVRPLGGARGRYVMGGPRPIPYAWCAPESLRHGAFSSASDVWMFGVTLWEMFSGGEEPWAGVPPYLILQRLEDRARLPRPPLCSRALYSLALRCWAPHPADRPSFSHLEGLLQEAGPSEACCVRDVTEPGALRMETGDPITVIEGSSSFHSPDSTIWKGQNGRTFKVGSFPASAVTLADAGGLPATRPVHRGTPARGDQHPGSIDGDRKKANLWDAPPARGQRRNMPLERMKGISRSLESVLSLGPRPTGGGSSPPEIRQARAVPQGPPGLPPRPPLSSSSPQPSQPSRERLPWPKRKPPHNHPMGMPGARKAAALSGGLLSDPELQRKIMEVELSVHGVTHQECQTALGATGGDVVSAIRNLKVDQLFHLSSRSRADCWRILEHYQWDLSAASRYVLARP
Experiment: TNK1 kinase activity inhibition assay (ADP-Glo)
Format: biochemical
Experimental: Measure compound inhibitory activity against TNK1 kinase using ADP-Glo Assay. 1× kinase reaction buffer was prepared (working concentrations: HEPES 50 mM, MgCl2 10 mM, Brij35 0.01%, EGTA 1 mM, DTT 2 mM). 2× kinase and 4× substrate buffers were prepared with the following working concentrations: For TNK1 kinase: kinase solution at 5 nM; substrate mixture containing ATP at 45 µM and MBP substrate at 0.1 mg/ mL. For ULK2 kinase: kinase solution at 0.15 nM; substrate mixture containing ATP at 6 µM and MBP substrate at 0.1 mg/mL. Compounds were serially diluted in DMSO and shaken on an orbital shaker for 20 minutes. 2× kinase solution was prepared using 1× kinase reaction buffer. 20 nL of compound solution was transferred to a 384-well plate. 2 µL of kinase solution was added to each well of the reaction plate. The plate was sealed with adhesive film, centrifuged at 1000 rpm for 60 seconds, and incubated at 25°C for 10 minutes. 2× ATP&MBP mixture was prepared using 1× kinase reaction buffer. 2 µL of 2× ATP&substrate mixture was added to the reaction plate. The plate was sealed with adhesive film, centrifuged at 1000 rpm for 60 seconds, and incubated at 25°C for 60 minutes. 4 µL of ADP-Glo reagent was transferred to the 384-well reaction plate, centrifuged at 1000 rpm for 1 minute, and incubated at 25°C for 40 minutes. 8 µL of Detection solution was transferred to the 384-well reaction plate, centrifuged at 1000 rpm for 1 minute, and incubated at 25°C for 40 minutes. Relative luminescence units (RLU) were measured using a BMG microplate reader, with signal intensity representing kinase activity level. The inhibition percentage was calculated as follows: % inhibition = 100% - [(Compound RLU - Positive Control RLU)/(Negative Control RLU - Positive Control RLU)] × 100%. The IC50 values (half-maximal inhibitory concentration) of compounds were determined by fitting the data to the following nonlinear regression equation using GraphPad Prism 7.0 software: Y = Bottom + (Top - Bottom)/(1 + 10^((LogIC50 - X) × Hill Slope)), where: X = log(compound concentration), Y = % inhibition. Table1: Inhibitory activity of compounds against ULK (IC50, nM)

Question: How did the IC50 turn out when `CNC(=O)c1ccccc1Nc1cc(Nc2cc3c(cc2OC)N2CCN(C4CCN(C)CC4)C[C@H]2CO3)ncc1C(F)(F)F` [Compound D2S] was run?
Answer: < 10 nM
